Reference: patent US10391071B2, “Compositions comprising valerian extracts” (Cutech SRL, priority 2015, dated 2019)

Columns and labels:
[1] = system: human sebaceous glands (hSGs); assay: Sebum content in ex-vivo cultured human sebaceous glands (hSGs), lipids normalized to proteins; format: cell-based
From the text: The following examples are intended to show the modulation of sebum production exerted by the experimental preparations on human sebaceous glands (hSGs) microdissected and cultivated up to day 6. At the end of the culture time, the sebum is extracted and quantified from each experimental group of hSGs and then normalized by the proteins extracted from the residual hSG material (mg lipids/mg proteins). As a result, the biological activity of the tested compounds is inferred by comparing the lipids/proteins ratio of the treated glands with that of the control group. A detailed methodology is reported in EP14179936.1 (Cutech Srl) The adopted experimental model is based on the cultivation of ex-vivo hSGs at constant concentrations of valerian extracts or purified derivatives. This experimental condition is not reproducible in vivo since both topical and oral administration produce fluctuating concentrations, depending on the frequency and composition of the treatment. […] The control group was cultured in standard medium, whereas a 5 μM Capsaicin treatment was included in the experimental design as positive control. Capsaicin is an active component of chili peppers suitable to inhibit sebogenesis [Tóth et al., 2009, J. Invest. Derm. 129: 329-339]. The effect of the treatment was evaluated by assessing the amounts of normalized lipids obtained from the treated groups, i.e. the quantitive ratio beween sebum lipids and proteins extracted from each group of hSGs (mg of lipids/mg of proteins), with respect to the value obtained from the control group. The results were expressed in percentage values, assuming the normalized lipids obtained from the control group as reference value (100%).

human skin subcutis = assay: Normalized total lipids in subcutis of ex-vivo cultured full-thickness human skin; format: cell-based; details: for Total lipid content in skin subcutis samples, % ratio of the control group performance (Average): Table 9, abdominal skin, six days of organ culture (five of treatment)
From the text: The reported examples from 19 to 23 are intended to show the modulation of adipocyte lipid content exerted by the experimental preparations on human skin subcutis. Full-thickness ex-vivo human skin samples, including the subcutis, were ex-vivo cultured and treated with compounds obtained from valerian extract, i.e. valerenic acid (VA) and pentanoic acid (AP), in order to evaluate their activity on the lipid metabolism.
The responses of the treated tissues, in comparison to the untreated group, were evaluated after 6 days of culture, by isolating the subcutis of each skin sample and then estimating its normalized content in total lipids.
Cylindrical pieces (7 mm in diameter) of full thickness human skin were excised from an abdominal skin sample paying attention to preserve the subcutis. These organ samples were seeded in 24-well plates at a density of 1 sample/well with 500 μl of culture medium, and cultured up to day 6. The samples submitted to experimental treatments received medium supplemented with VA at 0.5, 5 and 50 μM or PA at 0.2 and 2 μM. After the first day of culture, the samples were arranged in experimental groups including 4 samples each one. The control group received modified William E medium, while the samples submitted to experimental treatments received the same medium supplemented with the extracts. The culture medium was renewed every other day. After six days of organ culture (five of treatment), the subcutis of each skin sample was separated from the dermis and its total content of lipids and proteins was quantified. […] As a result, when lipogenesis is stimulated, an increase in the “total lipids/total proteins ratio”, hereinafter defined “normalized total lipids”, is expected, while the contrary occurs in the case of increased lipolysis.
The analytical protocol adopted to detect values of “normalized total lipids” is described below: • each subcutis sample was homogenized in 1 ml of isopropyl alcohol; • the sample was centrifuged at 14,000 G for 5 minutes and then the supernatant (containing the extracted lipids) was collected; • the supernatant was diluted 10 fold with isopropyl alcohol; • the diluted lipid extract was analysed with a Direct Detect IR Spectrometer (Millipore), which provided the total lipid concentration of the supernatant (mg/ml); • the total lipids of the subcutis sample was quantified multiplying the supernatant lipid concentration (indention 4) by the preliminary dilution factor (indention 3) and then by the volume of isopropyl alcohol used for the lipid extraction (indention 1); • the residual pellet obtained from indention 2 was washed with 1 ml of isopropyl alcohol and, after another centrifugation this solvent was withdrawn; • the pellet was dried in a vacuum dry evaporator and then homogenized in 100 ul of proteolytic buffer (20 mM Tris HCI pH 7.5, 150 mM NaCl, 2 mM EDTA, 0.5% Triton X-100, 2 mM DTT, 1% protease inhibitor cocktail); • the extractive mixture was centrifuged at 14,000 G for 10 minutes and the supernatant was collected and analysed with a Direct Detect IR Spectrometer (Millipore), which provided the total protein concentration of the supernatant (mg/ml); • the obtained total protein concentration was multiplied by the extractive volume (indention 7) in order to quantify the total proteins of the subcutis sample; • the total lipids (indention 5) were divided by the total proteins (indention 9) in order to obtain the amount of lipids per mg of proteins relative to the processed subcutis sample.

[2] = Table 1, scalp sample donor, 6 days culture, 5 μM

CC1=C2[C@H](/C=C(\C)C(=O)O)CC[C@@H](C)[C@H]2CC1 [VA, valerenic acid]
reduction of sebum content in the hSGs ([1]; Examples 1 to 4 donor, 0.5 μM): 26%
concentration range producing sebogenesis inhibition (very effective) ([1]; Examples 5 to 7 donor): 0.05 to 5 µM
reduction of sebogenesis (change versus control) ([1]; Examples 26 to 27, 0.5 μM): −29%
Sebum content in hSGs, % ratio of the control group performance (Average) ([1]; Table 1, scalp sample donor, 6 days culture, 0.05 μM): 98.9%
Sebum content in hSGs, % ratio of the control group performance (Average) ([1]; Table 1, scalp sample donor, 6 days culture, 0.5 μM): 74.2%
Sebum content in hSGs, % ratio of the control group performance (Average) [1, 2]: 88.0%
Sebum content in hSGs, % ratio of the control group performance (Average) ([1]; Table 1, scalp sample donor, 6 days culture, 50 μM): 88.6%
Sebum content in hSGs, % ratio of the control group performance (Average) ([1]; Table 2, another donor, 0.05 μM): 85.6%
Sebum content in hSGs, % ratio of the control group performance (Average) ([1]; Table 2, another donor, 0.5 μM): 61.2%
Sebum content in hSGs, % ratio of the control group performance (Average) ([1]; Table 2, another donor, 5 μM): 88.5%
Sebum content in hSGs, % ratio of the control group performance (Average) ([1]; Table 3, another donor, 0.05 μM): 75.0%
Sebum content in hSGs, % ratio of the control group performance (Average) ([1]; Table 3, another donor, 0.5 μM): 89.0%
Sebum content in hSGs, % ratio of the control group performance (Average) ([1]; Table 4, another donor, 0.05 μM): 54.1%
Sebum content in hSGs, % ratio of the control group performance (Average) ([1]; Table 4, another donor, 0.5 μM): 63.9%
Sebum content in hSGs, % ratio of the control group performance (Average) ([1]; Table 6, same donor, 0.05 μM): 41.4%
Sebum content in hSGs, % ratio of the control group performance (Average) ([1]; Table 6, same donor, 0.5 μM): 50.4%
Sebum content in hSGs, % ratio of the control group performance (Average) ([1]; Table 6, same donor, 5 μM): 70.7%
Sebum content in hSGs, % ratio of the control group performance (Average) ([1]; Table 8, 0.5 μM): 71.4%
response of lipid content in the skin subcutis versus control (human skin subcutis; 5.0 μM): −44.7%
Total lipid content in skin subcutis samples, % ratio of the control group performance (Average) (human skin subcutis; 0.5 μM): 63.9%
Total lipid content in skin subcutis samples, % ratio of the control group performance (Average) (human skin subcutis; 5 μM): 55.3%
Total lipid content in skin subcutis samples, % ratio of the control group performance (Average) (human skin subcutis; 50.0 μM): 59.0%

COc1cc(CNC(=O)CCCC/C=C/C(C)C)ccc1O [Capsaicin, reference compound]
reduction of sebum content of the hSGs in comparison with the control group ([1]; Examples 1 to 4 donor, positive control 5 μM): 17%
reduction of hSGs sebum content in comparison with the control group ([1]; Examples 5 to 7 donor, positive control 5 μM): 10%
response of sebum production versus control ([1]; Examples 22 to 25, positive control 5 μM): −17%
Sebum content in hSGs, % ratio of the control group performance (Average) [1, 2]: 83.3%
Sebum content in hSGs, % ratio of the control group performance (Average) ([1]; Table 2, another donor, 5 μM): 90.2%
Sebum content in hSGs, % ratio of the control group performance (Average) ([1]; Table 4, another donor, 5 μM): 37.2%
Sebum content in hSGs, % ratio of the control group performance (Average) ([1]; Table 5, 5 μM): 45.6%
Sebum content in hSGs, % ratio of the control group performance (Average) ([1]; Table 6, same donor, 5 μM): 59.2%
Sebum content in hSGs, % ratio of the control group performance (Average) ([1]; Table 7, 5 μM): 83.0%
Total lipid content in skin subcutis samples, % ratio of the control group performance (Average) (human skin subcutis; 5 μM): 73.6%

CCCCC(=O)O [PA, pentanoic acid]
Sebum content in hSGs, % ratio of the control group performance (Average) ([1]; Table 5, 0.2 mM): 57.3%
Sebum content in hSGs, % ratio of the control group performance (Average) ([1]; Table 5, 2 mM): 65.6%
Sebum content in hSGs, % ratio of the control group performance (Average) ([1]; Table 6, same donor, 0.02 mM): 62.5%
Sebum content in hSGs, % ratio of the control group performance (Average) ([1]; Table 6, same donor, 0.2 mM): 60.9%
Sebum content in hSGs, % ratio of the control group performance (Average) ([1]; Table 6, same donor, 2.0 mM): 75.4%
Total lipid content in skin subcutis samples, % ratio of the control group performance (Average) (human skin subcutis; 0.2 μM): 82.6%
Total lipid content in skin subcutis samples, % ratio of the control group performance (Average) (human skin subcutis; 2.0 μM): 91.6%
reduction in total lipid content of skin subcutis (human skin subcutis; concentration not given): 17.8%
